Legend:
[1] = target: Serine/threonine-protein kinase MARK1 (Homo sapiens) (UniProt Q9P0L2); details: Compound concentration 1000.0 nM
[2] = target: T1, Mitogen-activated protein kinase 13 (Homo sapiens) (UniProt O15264); assay: MAPK13 Invitrogen selectivity data (BI); details: Compound concentration 3.0 uM
T1 sequence (whole entry): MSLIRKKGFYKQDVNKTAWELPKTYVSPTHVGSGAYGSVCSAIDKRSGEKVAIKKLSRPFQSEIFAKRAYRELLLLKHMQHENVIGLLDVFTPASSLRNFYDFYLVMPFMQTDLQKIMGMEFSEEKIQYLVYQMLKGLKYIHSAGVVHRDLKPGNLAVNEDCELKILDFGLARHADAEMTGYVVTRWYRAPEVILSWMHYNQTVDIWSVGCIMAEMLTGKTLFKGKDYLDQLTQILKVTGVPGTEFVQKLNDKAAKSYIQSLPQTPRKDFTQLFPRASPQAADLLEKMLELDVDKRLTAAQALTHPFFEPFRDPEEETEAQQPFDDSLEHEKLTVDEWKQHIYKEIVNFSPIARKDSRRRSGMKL

[3] = target: T2, Alpha-1B adrenergic receptor (Homo sapiens) (UniProt P35368); assay: ALPHA1B/HU Cerep selectivity data (BI); details: Compound concentration 20.0 uM
T2 sequence (whole entry): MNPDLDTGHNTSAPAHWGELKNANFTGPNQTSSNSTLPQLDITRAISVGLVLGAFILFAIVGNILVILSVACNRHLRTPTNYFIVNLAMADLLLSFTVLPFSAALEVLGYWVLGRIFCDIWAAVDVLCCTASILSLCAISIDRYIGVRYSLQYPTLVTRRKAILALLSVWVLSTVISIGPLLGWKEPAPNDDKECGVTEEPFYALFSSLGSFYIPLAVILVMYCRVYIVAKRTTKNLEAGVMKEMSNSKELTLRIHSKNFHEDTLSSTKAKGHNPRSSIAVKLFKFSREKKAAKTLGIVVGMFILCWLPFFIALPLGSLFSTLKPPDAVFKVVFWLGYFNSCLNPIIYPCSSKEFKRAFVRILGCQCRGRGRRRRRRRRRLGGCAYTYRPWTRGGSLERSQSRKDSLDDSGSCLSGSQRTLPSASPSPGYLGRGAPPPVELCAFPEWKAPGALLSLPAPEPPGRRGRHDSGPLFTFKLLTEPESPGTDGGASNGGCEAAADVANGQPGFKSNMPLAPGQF

[4] = target: Apelin receptor (Homo sapiens) (UniProt P35414); assay: APJH_AGON Cerep selectivity data (BI); details: filed as agonist, Compound concentration 20.0 uM
[5] = target: Sigma non-opioid intracellular receptor 1 (Homo sapiens) (UniProt Q99720); assay: SIGMA1/HU Eurofins-Panlabs selectivity data (BI); details: Compound concentration 10.0 uM
[6] = target: Tyrosine-protein kinase receptor UFO (Homo sapiens) (UniProt P30530); assay: AXL Invitrogen selectivity data (BI); details: Compound concentration 3.0 uM
[7] = target: Calcium/calmodulin-dependent protein kinase type II subunit alpha (Homo sapiens) (UniProt Q9UQM7); assay: CAMK2ALPHA(H) Cerep selectivity data (BI); details: Compound concentration 20.0 uM
[8] = target: Phosphorylase b kinase gamma catalytic chain, skeletal muscle/heart isoform (Homo sapiens) (UniProt Q16816); assay: PHKG1 Invitrogen selectivity data (BI); details: Compound concentration 3.0 uM
[9] = system: Epidermal growth factor receptor (Homo sapiens), P00533 [L861Q]; assay: EGFR L861Q Invitrogen selectivity data (BI); details: Compound concentration 3.0 uM
[10] = system: Tyrosine-protein kinase ABL1 (Homo sapiens), P00519 [Y253F]; assay: ABL1 Y253F Invitrogen selectivity data (BI); details: Compound concentration 3.0 uM
[11] = target: Tyrosine-protein kinase CSK (Homo sapiens) (UniProt P41240); assay: CSK Invitrogen selectivity data (BI); details: Compound concentration 3.0 uM
[12] = target: T3, Alpha-1A adrenergic receptor (Homo sapiens) (UniProt P35348); assay: ALPHA1AH_ANTAG Cerep selectivity data (BI); details: filed as antagonist, Compound concentration 20.0 uM
T3 sequence (whole entry): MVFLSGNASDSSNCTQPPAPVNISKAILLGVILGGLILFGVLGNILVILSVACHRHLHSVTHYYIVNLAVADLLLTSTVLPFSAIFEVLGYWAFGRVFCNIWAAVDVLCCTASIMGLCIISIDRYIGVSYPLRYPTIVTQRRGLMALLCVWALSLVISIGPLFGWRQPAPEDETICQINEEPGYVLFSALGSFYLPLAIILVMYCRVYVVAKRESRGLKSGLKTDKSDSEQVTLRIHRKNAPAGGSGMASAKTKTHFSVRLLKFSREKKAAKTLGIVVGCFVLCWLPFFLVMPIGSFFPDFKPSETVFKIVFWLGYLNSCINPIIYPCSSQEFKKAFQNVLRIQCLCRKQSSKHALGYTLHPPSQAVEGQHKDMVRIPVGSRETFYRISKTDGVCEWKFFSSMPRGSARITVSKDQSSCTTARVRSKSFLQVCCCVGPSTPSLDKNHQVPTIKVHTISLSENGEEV

[13] = target: L-type Ca2+ channel (verapamil site), Cav1.2 alpha-1C (Rattus norvegicus, UniProt P22002); assay: CA+/VERSI/R Cerep selectivity data (BI); set-up: mode of action inhibitor; details: rat brain, probe [3H](-)D888, compound concentration 20 uM, read-out: % Ctrl
[14] = target: L-type Ca2+ channel (dihydropyridine site), Cav1.2 alpha-1C (Rattus norvegicus, UniProt P22002); assay: CA+/DHPSI/R Cerep selectivity data (BI); set-up: mode of action inhibitor; details: rat brain, probe [3H](+)PN200-110, compound concentration 20 uM, read-out: % Ctrl
[15] = target: Sodium- and chloride-dependent GABA transporter 1 (Rattus norvegicus) (UniProt P23978); assay: GABATRANS/R Cerep selectivity data (BI); details: Compound concentration 20.0 uM
[16] = target: Phosphatidylinositol 4,5-bisphosphate 3-kinase catalytic subunit gamma isoform (Homo sapiens) (UniProt P48736); assay: PIK3CG Invitrogen selectivity data (BI); details: Compound concentration 3.0 uM
[17] = target: Sodium- and chloride-dependent GABA transporter 1 (Rattus norvegicus) (UniProt P23978); assay: GABATRANS/RA Eurofins-Panlabs selectivity data (BI); details: Compound concentration 10.0 uM
[18] = target: Serine/threonine-protein kinase mTOR (Homo sapiens) (UniProt P42345); assay: FRAP1 (MTOR) Invitrogen selectivity data (BI); details: Compound concentration 3.0 uM
[19] = target: RAC-gamma serine/threonine-protein kinase (Homo sapiens) (UniProt Q9Y243); assay: AKT3 Invitrogen selectivity data (BI); details: Compound concentration 3.0 uM
[20] = target: Angiotensin-converting enzyme 2 (Homo sapiens) (UniProt Q9BYF1); assay: ACE-2(HU) Cerep selectivity data (BI); details: Compound concentration 20.0 uM
Sequence of Angiotensin-converting enzyme 2 (Homo sapiens) (Q9BYF1 18-805 limits assumed): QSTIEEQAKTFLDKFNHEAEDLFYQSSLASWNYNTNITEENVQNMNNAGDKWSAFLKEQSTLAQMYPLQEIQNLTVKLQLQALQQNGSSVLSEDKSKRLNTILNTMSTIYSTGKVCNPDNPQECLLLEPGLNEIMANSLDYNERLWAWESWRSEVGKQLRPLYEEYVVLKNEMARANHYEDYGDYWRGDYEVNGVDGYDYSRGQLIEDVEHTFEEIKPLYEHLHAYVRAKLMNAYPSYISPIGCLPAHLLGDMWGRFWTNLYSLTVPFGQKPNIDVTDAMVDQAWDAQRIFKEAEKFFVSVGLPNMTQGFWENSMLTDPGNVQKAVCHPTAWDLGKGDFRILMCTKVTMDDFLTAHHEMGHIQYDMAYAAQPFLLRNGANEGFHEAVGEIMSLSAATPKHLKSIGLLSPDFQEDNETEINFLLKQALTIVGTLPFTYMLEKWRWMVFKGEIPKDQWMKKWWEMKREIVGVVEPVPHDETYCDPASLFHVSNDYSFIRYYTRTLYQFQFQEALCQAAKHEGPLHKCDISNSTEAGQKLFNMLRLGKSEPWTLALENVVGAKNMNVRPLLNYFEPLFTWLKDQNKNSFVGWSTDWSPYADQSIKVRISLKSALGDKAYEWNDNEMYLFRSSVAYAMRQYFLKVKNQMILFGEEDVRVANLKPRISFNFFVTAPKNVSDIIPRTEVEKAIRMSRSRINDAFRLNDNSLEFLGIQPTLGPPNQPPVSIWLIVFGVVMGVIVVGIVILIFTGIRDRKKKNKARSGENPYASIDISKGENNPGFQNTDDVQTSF

Sequence of Phosphorylase b kinase gamma catalytic chain, skeletal muscle/heart isoform (Homo sapiens) (Q16816 whole entry, looked up, canonical isoform): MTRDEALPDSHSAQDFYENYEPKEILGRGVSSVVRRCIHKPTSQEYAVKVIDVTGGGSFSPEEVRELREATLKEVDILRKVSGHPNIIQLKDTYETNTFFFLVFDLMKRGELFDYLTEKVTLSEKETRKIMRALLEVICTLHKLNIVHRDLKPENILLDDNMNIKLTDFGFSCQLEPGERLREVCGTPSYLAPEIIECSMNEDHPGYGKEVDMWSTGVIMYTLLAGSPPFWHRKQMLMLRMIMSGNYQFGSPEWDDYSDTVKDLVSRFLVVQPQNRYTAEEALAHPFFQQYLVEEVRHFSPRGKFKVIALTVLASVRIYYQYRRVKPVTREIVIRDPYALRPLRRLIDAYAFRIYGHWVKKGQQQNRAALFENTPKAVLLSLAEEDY
Sequence of Tyrosine-protein kinase CSK (Homo sapiens) (P41240 2-450 limits assumed): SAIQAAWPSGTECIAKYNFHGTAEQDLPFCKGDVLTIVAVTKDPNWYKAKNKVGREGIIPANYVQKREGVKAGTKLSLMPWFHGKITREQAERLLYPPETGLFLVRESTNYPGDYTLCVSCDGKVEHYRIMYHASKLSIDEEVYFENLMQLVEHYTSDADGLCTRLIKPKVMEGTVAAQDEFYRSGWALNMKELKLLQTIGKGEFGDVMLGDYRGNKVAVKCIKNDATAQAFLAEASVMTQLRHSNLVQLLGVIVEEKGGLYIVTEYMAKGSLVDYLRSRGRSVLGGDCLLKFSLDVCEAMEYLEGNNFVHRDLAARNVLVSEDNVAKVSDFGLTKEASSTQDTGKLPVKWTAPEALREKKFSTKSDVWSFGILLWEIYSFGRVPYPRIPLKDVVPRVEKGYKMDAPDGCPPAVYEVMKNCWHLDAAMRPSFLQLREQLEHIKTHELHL
Sequence of Calcium/calmodulin-dependent protein kinase type II subunit alpha (Homo sapiens) (Q9UQM7 whole entry, canonical isoform): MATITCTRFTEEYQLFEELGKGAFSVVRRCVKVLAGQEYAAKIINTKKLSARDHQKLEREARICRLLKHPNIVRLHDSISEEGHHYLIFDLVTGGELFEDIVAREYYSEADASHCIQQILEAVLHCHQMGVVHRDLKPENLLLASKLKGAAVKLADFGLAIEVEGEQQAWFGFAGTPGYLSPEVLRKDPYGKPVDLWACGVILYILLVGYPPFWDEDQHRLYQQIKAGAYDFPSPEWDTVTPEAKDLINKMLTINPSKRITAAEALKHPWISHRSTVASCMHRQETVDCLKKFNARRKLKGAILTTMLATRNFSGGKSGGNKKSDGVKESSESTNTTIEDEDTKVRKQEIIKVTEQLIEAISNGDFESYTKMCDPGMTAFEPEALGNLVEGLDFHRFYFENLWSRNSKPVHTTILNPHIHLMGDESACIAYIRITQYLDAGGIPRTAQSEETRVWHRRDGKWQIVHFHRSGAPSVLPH
Sequence of Phosphatidylinositol 4,5-bisphosphate 3-kinase catalytic subunit gamma isoform (Homo sapiens) (P48736 whole entry, looked up, canonical isoform): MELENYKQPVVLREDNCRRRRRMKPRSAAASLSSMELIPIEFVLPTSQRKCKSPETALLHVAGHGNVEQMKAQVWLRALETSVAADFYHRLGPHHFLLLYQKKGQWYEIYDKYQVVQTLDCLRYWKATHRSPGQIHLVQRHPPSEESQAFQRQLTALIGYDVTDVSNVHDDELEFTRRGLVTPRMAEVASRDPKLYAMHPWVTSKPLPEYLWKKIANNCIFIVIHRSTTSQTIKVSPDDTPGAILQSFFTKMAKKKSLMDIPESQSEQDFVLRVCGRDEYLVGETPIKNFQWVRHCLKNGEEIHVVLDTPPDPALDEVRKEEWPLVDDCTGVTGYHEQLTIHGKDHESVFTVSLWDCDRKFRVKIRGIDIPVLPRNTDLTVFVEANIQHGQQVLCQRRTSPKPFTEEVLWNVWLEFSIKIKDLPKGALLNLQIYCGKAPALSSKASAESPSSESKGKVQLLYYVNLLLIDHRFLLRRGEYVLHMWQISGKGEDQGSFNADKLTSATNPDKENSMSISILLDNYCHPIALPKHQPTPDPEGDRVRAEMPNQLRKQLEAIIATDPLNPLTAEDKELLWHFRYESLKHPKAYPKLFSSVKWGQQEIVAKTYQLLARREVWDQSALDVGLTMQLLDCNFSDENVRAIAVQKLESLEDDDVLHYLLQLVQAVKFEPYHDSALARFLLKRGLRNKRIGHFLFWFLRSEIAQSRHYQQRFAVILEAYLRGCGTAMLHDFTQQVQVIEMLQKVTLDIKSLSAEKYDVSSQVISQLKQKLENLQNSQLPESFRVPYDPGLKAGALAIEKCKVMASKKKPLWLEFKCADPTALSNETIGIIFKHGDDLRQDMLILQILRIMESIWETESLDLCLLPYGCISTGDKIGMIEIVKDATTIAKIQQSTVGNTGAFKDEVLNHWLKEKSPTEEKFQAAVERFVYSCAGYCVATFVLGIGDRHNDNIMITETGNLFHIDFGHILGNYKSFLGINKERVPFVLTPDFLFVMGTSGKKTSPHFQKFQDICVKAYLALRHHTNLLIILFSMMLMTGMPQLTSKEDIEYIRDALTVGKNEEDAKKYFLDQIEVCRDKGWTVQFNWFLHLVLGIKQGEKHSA
Sequence of RAC-gamma serine/threonine-protein kinase (Homo sapiens) (Q9Y243 whole entry): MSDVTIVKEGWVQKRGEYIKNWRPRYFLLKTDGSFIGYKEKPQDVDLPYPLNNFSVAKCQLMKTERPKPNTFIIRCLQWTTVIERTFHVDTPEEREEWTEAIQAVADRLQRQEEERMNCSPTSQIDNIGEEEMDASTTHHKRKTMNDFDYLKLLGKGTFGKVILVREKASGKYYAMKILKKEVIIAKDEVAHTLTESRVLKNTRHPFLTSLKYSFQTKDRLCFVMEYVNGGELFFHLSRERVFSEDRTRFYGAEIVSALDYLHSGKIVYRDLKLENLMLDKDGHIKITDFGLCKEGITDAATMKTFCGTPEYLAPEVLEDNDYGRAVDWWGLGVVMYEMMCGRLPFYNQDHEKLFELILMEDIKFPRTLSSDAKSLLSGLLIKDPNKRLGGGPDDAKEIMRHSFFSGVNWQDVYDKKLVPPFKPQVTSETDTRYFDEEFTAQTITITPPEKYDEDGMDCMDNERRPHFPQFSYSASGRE
Sequence of Apelin receptor (Homo sapiens) (P35414 whole entry): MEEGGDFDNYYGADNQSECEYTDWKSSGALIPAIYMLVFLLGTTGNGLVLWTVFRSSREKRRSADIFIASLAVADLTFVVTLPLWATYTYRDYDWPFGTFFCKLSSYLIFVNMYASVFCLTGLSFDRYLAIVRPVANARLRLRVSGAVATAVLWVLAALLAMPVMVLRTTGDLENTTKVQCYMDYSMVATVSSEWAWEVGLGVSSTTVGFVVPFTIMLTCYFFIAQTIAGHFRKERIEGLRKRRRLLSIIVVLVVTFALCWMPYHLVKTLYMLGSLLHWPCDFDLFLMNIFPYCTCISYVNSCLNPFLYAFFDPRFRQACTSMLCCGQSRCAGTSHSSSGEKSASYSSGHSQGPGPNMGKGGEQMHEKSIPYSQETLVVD
Sequence of Sigma non-opioid intracellular receptor 1 (Homo sapiens) (Q99720 whole entry): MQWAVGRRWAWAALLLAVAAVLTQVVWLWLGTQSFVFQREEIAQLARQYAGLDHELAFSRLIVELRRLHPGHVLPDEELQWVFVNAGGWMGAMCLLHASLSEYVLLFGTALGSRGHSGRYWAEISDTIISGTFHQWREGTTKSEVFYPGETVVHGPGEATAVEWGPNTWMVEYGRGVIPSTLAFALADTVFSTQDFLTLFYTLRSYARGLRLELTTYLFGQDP

| Compound | residual activity [1] | residual activity [2] | residual activity [3] | residual activity [4] | residual activity [5] | residual activity [6] | residual activity [7] | residual activity [8] | residual activity [9] | residual activity [10] | residual activity [11] | residual activity [12] | activity at 20 µM [13] | activity at 20 µM [14] | residual activity [15] | residual activity [16] | residual activity [17] | residual activity [18] | residual activity [19] | residual activity [20] |
| --- | --- | --- | --- | --- | --- | --- | --- | --- | --- | --- | --- | --- | --- | --- | --- | --- | --- | --- | --- | --- |
| CN(C)C(=O)Cn1cc(-c2nc(C3(c4ccc(-c5cnc(N)nc5)cc4)CC3)no2)cn1 [BI 0153] | 100% | – | – | – | – | – | – | – | – | – | – | – | – | – | – | – | – | – | – | – |
| CN(C)C(=O)Cn1cc(-c2nc([C@@](C)(c3ccc(-c4cnc(N)nc4)cc3)C3CC3)no2)cn1 [BI 665915] | – | 96.5% | 120% | 101% | 108% | 95.5% | 111% | 97.5% | 98% | 80% | 95% | 99% | 90% (not active) | 85% (not active) | 96% | 104% | 82% | 104% | 102% | 132% |

From ChEMBL document CHEMBL4507276 (2021)
